Experimental findings from PubChem BioAssay (NCI) are described below.

Among the test systems are LOX IMVI melanoma; M14 melanoma; MALME-3M melanoma; MDA-MB-435; NCI-H23 lung; NCI/ADR-RES ovarian; SK-MEL-28 melanoma; SN12C renal; SW-620 colon; UACC-62 melanoma.
Holding throughout (test): growth of human tumour cells (NCI), 48 h

SMILES strings stand for the structures. “And” between values parts separate entries of the source, which are not always exact repeats. Equal entries are not always repeated.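 Compound exposure: 48 hours, 5 concentrations, 96-well plates. The concentration for 50% growth inhibition is given as GI50. Definition used: TGI = concentration required for complete inhibition of growth.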 A value given as a limit tells only on which side of the number the result lay.

Turning to `Cn1cnc([N+](=O)[O-])c1Sc1ncnc2c1ncn2C1OC(CO)C(O)C1O` (stereo not drawn), the GI50 with LOX IMVI melanoma is 1.71 µM; in the experiment with M14 melanoma, 2.29 µM; with MALME-3M melanoma it was 46.3 µM; in the experiment with MDA-MB-435, 3.6 µM; in the experiment with NCI-H23 lung it was 4.8 µM; in the experiment with NCI/ADR-RES ovarian, 4.84 µM. Further, the GI50 with SK-MEL-28 melanoma is 72.2 µM; in the experiment with SN12C renal, 41.9 µM; in the experiment with SW-620 colon, 32.6 µM; with UACC-62 melanoma, 5.98 µM. For the same compound, the TGI in the experiment on LOX IMVI melanoma, in the experiment with M14 melanoma, with MALME-3M melanoma, in the experiment with MDA-MB-435, in the experiment with NCI-H23 lung and in the experiment on NCI/ADR-RES ovarian was > 100 µM each time. Also, the TGI in the experiment with SK-MEL-28 melanoma, in the experiment with SN12C renal, in the experiment on SW-620 colon and in the experiment with UACC-62 melanoma was > 100 µM throughout.

As for `CC(=O)Oc1cccc2c1C(=O)c1c(OC(C)=O)cc(C)cc1C2=O`, the TGI in the experiment with LOX IMVI melanoma, with M14 melanoma, in the experiment with MALME-3M melanoma, in the experiment on MDA-MB-435, in the experiment on NCI-H23 lung and in the experiment on NCI/ADR-RES ovarian was > 100 µM in each case. Also, the TGI with SK-MEL-28 melanoma, in the experiment on SN12C renal, with SW-620 colon and with UACC-62 melanoma was > 100 µM each time.

As to `Oc1ccc2ccccc2c1N=Nc1ccccc1`, the TGI in the experiment on LOX IMVI melanoma, with M14 melanoma, in the experiment with MALME-3M melanoma, with MDA-MB-435, with NCI-H23 lung and in the experiment on NCI/ADR-RES ovarian was > 100 µM each time. In addition, the TGI with SK-MEL-28 melanoma, in the experiment on SN12C renal, in the experiment with SW-620 colon and with UACC-62 melanoma was > 100 µM each time.

In the case of `COc1ccc(/C=C(\C#N)c2cc3ccccc3n2C)cc1`, the GI50 in the experiment with LOX IMVI melanoma was 0.577 µM; with M14 melanoma, 0.308 µM; in the experiment with MALME-3M melanoma it was 0.475 µM; with MDA-MB-435, 0.153 µM; with NCI-H23 lung, 0.645 µM; with NCI/ADR-RES ovarian it was 0.319 µM. Further, the GI50 with SK-MEL-28 melanoma is 4.52 µM; in the experiment with SN12C renal, 0.58 µM; in the experiment on SW-620 colon it was 0.357 µM; with UACC-62 melanoma it was 0.504 µM. The TGI in the experiment on LOX IMVI melanoma was > 100 µM; in the experiment with M14 melanoma it was > 100 µM; in the experiment with MALME-3M melanoma, > 100 µM; in the experiment on MDA-MB-435, 0.403 µM; with NCI-H23 lung, > 100 µM; in the experiment with NCI/ADR-RES ovarian it was > 28.7 µM. For the same compound, the TGI in the experiment with SK-MEL-28 melanoma, in the experiment on SN12C renal, with SW-620 colon and in the experiment on UACC-62 melanoma was > 100 µM throughout.

`CC1OC(O)C(O)C(O)C1O` (stereo not drawn): the TGI in the experiment on LOX IMVI melanoma, in the experiment on M14 melanoma, in the experiment on MALME-3M melanoma, in the experiment on MDA-MB-435, in the experiment on NCI-H23 lung and in the experiment on NCI/ADR-RES ovarian was > 100 µM in each case. For the same compound, the TGI in the experiment with SK-MEL-28 melanoma, with SN12C renal, in the experiment on SW-620 colon and with UACC-62 melanoma was > 100 µM throughout.

Regarding `COc1ccc(/C=C2\N=C3SC=C(N)N3C2=O)cc1`, the GI50 in the experiment on LOX IMVI melanoma was 0.964 µM; in the experiment with M14 melanoma, 1.21 µM; in the experiment with MALME-3M melanoma, 0.23 µM; in the experiment with MDA-MB-435, 0.808 µM; in the experiment on NCI-H23 lung it was 1.67 µM; with NCI/ADR-RES ovarian, 2.76 µM. The GI50 with SK-MEL-28 melanoma is 1.29 µM; with SN12C renal, 1.57 µM; with SW-620 colon, 1.34 µM; in the experiment with UACC-62 melanoma, 1.07 µM. Also, the TGI was found to be 2.43 µM in the experiment on LOX IMVI melanoma; 4.73 µM in the experiment on M14 melanoma; 1.52 µM with MALME-3M melanoma; 6.06 µM in the experiment on MDA-MB-435; 8.47 µM in the experiment with NCI-H23 lung; 18.6 µM in the experiment with NCI/ADR-RES ovarian. In addition, the TGI in the experiment with SK-MEL-28 melanoma came to 4.75 µM; with SN12C renal it was 7.35 µM; with SW-620 colon, 6.07 µM; in the experiment with UACC-62 melanoma, 2.76 µM.

Take `O=[N+]([O-])c1ccc2c(N=Nc3c(O)ccc4ccccc34)c(O)cc(S(=O)(=O)O)c2c1`: the TGI is > 100 µM in the experiment with LOX IMVI melanoma; 10.5 µM in the experiment on M14 melanoma; 40.3 µM and > 100 µM with MALME-3M melanoma; 50 µM and > 100 µM in the experiment with MDA-MB-435; 50 µM and > 100 µM in the experiment with NCI-H23 lung; 33.4 µM and > 100 µM in the experiment on NCI/ADR-RES ovarian. In addition, the TGI with SK-MEL-28 melanoma was 50 µM and > 100 µM; with SN12C renal it was 50 µM and > 100 µM; in the experiment with SW-620 colon, 50 µM and > 100 µM; with UACC-62 melanoma, 50 µM and > 100 µM. Further, the GI50 with MALME-3M melanoma is 50.1 µM; in the experiment with MDA-MB-435, 47.5 µM; with NCI-H23 lung it was 49.8 µM; in the experiment with NCI/ADR-RES ovarian, 40.6 µM; with SK-MEL-28 melanoma it was 32.5 µM; with SN12C renal it was 59 µM. Besides, the GI50 in the experiment with SW-620 colon was 57.7 µM; in the experiment with UACC-62 melanoma it was 34.2 µM.

Turning to `COc1ccc2c(c1)OC13Oc4cc(OC)ccc4C=C1CCCC3=C2`, the GI50 in the experiment on LOX IMVI melanoma was > 100 µM; in the experiment on M14 melanoma, > 100 µM; in the experiment on MALME-3M melanoma, > 100 µM; in the experiment on MDA-MB-435 it was 5.52 µM; in the experiment on NCI-H23 lung it was > 100 µM; in the experiment with NCI/ADR-RES ovarian, > 100 µM. Also, the GI50 in the experiment with SK-MEL-28 melanoma was > 100 µM; in the experiment with SN12C renal it was > 100 µM; in the experiment with SW-620 colon, > 100 µM; with UACC-62 melanoma, 4.5 µM. Also, the TGI in the experiment with LOX IMVI melanoma, with M14 melanoma, with MALME-3M melanoma, in the experiment on MDA-MB-435, in the experiment on NCI-H23 lung and in the experiment with NCI/ADR-RES ovarian was > 100 µM throughout. Moreover, the TGI in the experiment on SK-MEL-28 melanoma, in the experiment on SN12C renal, with SW-620 colon and in the experiment with UACC-62 melanoma was > 100 µM throughout.

Turning to `Oc1c(CN2CCCC2)cc(COCc2ccccc2)c2cccnc12`, the GI50 is 0.798 µM with LOX IMVI melanoma; 1.11 µM with M14 melanoma; 3.35 µM in the experiment with MALME-3M melanoma; 4.43 µM with MDA-MB-435; 2.89 µM in the experiment on NCI-H23 lung; 0.152 µM in the experiment with NCI/ADR-RES ovarian. The GI50 in the experiment with SK-MEL-28 melanoma is 3.49 µM; in the experiment on SN12C renal it was 4.04 µM; with SW-620 colon, 3.27 µM; with UACC-62 melanoma, 1.81 µM. The TGI in the experiment on LOX IMVI melanoma stood at 5.61 µM; in the experiment with M14 melanoma, 10.1 µM; with MALME-3M melanoma, 14.4 µM; in the experiment with MDA-MB-435 it was 26.3 µM; with NCI-H23 lung, 11.6 µM; in the experiment with NCI/ADR-RES ovarian, 0.761 µM. Besides, the TGI in the experiment with SK-MEL-28 melanoma was 18.6 µM; with SN12C renal, 20.8 µM; in the experiment with SW-620 colon, 18.2 µM; in the experiment on UACC-62 melanoma, 7.7 µM.
